Data published in publication PMC6009956, “Design, synthesis and biological activity of N^4-phenylsubstituted-7H-pyrrolo[2,3-d]pyrimidin-4-amines as dual inhibitors of aurora kinase A and epidermal growth factor receptor kinase” (Journal of Enzyme Inhibition and Medicinal Chemistry, 2017).
Read-outs that look alike come from different tables or passages of the source. One block for each compound: values may come before it.

Legend:
EGFR = EGFR (Homo sapiens, UniProt P00533); experiment: ADP-Glo kinase assay, EGFR; type: biochemical; design: purchased BPS Bioscience (assay run externally by the vendor)
aurora A kinase (AURKA) = target: T1, aurora A kinase (AURKA) (Homo sapiens, UniProt O14965); experiment: ADP-Glo kinase assay, Aurora A; type: biochemical
T1 construct: purchased BPS Bioscience (assay run externally by the vendor)
T1 sequence (O14965 1-403): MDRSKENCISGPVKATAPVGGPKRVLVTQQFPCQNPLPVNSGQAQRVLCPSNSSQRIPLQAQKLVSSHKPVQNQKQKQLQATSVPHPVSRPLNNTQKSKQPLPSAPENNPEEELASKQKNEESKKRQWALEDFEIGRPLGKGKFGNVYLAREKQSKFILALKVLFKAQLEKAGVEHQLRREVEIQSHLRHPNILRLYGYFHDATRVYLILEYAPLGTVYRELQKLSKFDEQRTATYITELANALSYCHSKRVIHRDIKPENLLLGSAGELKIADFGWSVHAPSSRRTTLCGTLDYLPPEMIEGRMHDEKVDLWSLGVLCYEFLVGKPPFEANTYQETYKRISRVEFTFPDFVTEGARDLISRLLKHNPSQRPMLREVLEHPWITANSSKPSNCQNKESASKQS

[1] = 10 µM ATP, triplicate, read-out: EGFR IC50 ± SD
[2] = 10 µM ATP/0.2 mg/ml Poly-Glu-Tyr, read-out: EGFR IC50 (dose-response curve, supplement)
[3] = 10 µM ATP, triplicate, read-out: AURKA IC50 ± SD
[4] = 10 µM ATP/0.2 mg/ml Kemptide, read-out: Aurora A IC50 (dose-response curve, supplement)

EGFR, sequence (P00533 25-1210): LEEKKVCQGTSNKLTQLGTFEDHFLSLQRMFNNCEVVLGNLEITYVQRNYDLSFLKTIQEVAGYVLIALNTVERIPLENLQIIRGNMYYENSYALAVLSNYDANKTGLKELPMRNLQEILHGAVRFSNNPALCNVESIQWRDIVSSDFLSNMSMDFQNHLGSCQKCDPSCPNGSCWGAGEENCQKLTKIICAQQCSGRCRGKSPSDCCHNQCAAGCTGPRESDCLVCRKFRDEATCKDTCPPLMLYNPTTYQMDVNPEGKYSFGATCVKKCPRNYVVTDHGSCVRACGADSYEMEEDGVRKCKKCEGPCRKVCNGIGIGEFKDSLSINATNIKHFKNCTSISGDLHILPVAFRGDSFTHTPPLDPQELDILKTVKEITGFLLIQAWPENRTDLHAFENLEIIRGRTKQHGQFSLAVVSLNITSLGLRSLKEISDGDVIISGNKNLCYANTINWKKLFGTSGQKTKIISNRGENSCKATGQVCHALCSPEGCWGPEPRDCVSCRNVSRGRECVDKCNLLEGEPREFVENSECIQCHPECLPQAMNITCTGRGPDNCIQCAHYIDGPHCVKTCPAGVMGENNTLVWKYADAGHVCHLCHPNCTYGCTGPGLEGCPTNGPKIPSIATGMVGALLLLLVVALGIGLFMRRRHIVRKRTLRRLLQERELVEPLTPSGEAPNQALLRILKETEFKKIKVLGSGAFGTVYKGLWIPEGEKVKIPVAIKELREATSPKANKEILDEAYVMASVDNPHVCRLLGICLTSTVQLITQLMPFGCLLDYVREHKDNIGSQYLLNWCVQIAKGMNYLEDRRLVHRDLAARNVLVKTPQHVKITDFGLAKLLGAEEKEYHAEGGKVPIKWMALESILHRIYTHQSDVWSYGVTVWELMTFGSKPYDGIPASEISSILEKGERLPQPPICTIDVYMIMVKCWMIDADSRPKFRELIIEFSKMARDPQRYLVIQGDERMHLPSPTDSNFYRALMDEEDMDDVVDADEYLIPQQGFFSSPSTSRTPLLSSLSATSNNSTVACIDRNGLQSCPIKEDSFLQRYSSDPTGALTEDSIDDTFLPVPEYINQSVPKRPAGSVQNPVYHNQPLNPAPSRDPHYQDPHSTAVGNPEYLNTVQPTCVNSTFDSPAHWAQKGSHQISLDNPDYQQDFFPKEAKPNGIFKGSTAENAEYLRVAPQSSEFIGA

- EGFR inhibition (in words) (EGFR): single-digit nanomolar EGFR inhibition
- IC50 (EGFR; [1]): 0.00363 ± 0.00043 µM
- IC50 (EGFR; [2]): 0.0036 µM
- EGFR % Activity Set1 (EGFR; Log[nM] 0): 44%
- EGFR % Activity Set2 (EGFR; Log[nM] 0): 50%
- EGFR % Activity Set3 (EGFR; Log[nM] 0): 53%
- EGFR % Activity Set1 (EGFR; Log[nM] 1.0): 18%
- EGFR % Activity Set2 (EGFR; Log[nM] 1.0): 17%
- EGFR % Activity Set3 (EGFR; Log[nM] 1.0): 20%
- EGFR % Activity Set1 (EGFR; Log[nM] 1.5): 12%
- EGFR % Activity Set2 (EGFR; Log[nM] 1.5): 13%
- EGFR % Activity Set3 (EGFR; Log[nM] 1.5): 15%
- EGFR % Activity Set1 (EGFR; Log[nM] 2.0): 4%
- EGFR % Activity Set2 (EGFR; Log[nM] 2.0): 5%
- EGFR % Activity Set3 (EGFR; Log[nM] 2.0): 4%
- EGFR % Activity Set1 (EGFR; Log[nM] 2.5): 3%
- EGFR % Activity Set2 (EGFR; Log[nM] 2.5): 3%
- EGFR % Activity Set3 (EGFR; Log[nM] 2.5): 3%
- EGFR % Activity Set1 (EGFR; Log[nM] 3.0): 1%
- EGFR % Activity Set2 (EGFR; Log[nM] 3.0): 2%
- EGFR % Activity Set3 (EGFR; Log[nM] 3.0): 2%
- EGFR % Activity Set1 (EGFR; Log[nM] 3.5): 1%
- EGFR % Activity Set2 (EGFR; Log[nM] 3.5): 1%
- EGFR % Activity Set3 (EGFR; Log[nM] 3.5): 0%
- EGFR % Activity Set1 (EGFR; Log[nM] 4.0): 0%
- EGFR % Activity Set2 (EGFR; Log[nM] 4.0): 0%
- EGFR % Activity Set3 (EGFR; Log[nM] 4.0): 0%
- EGFR % Activity Set1 (EGFR; Log[nM] 4.5): 1%
- EGFR % Activity Set2 (EGFR; Log[nM] 4.5): 1%
- EGFR % Activity Set3 (EGFR; Log[nM] 4.5): 1%
- EGFR % Activity Set1 (EGFR; Log[nM] 5.0): 0%
- EGFR % Activity Set2 (EGFR; Log[nM] 5.0): 0%
- EGFR % Activity Set3 (EGFR; Log[nM] 5.0): 0%
- IC50 (aurora A kinase (AURKA); [3]): 3.23 ± 0.31 µM
- IC50 (aurora A kinase (AURKA); [4]): 3.3 µM
- Aurora A % Activity Set1 (aurora A kinase (AURKA); Log[nM] 0): 95%
- Aurora A % Activity Set2 (aurora A kinase (AURKA); Log[nM] 0): 102%
- Aurora A % Activity Set3 (aurora A kinase (AURKA); Log[nM] 0): 95%
- Aurora A % Activity Set1 (aurora A kinase (AURKA); Log[nM] 1.0): 100%
- Aurora A % Activity Set2 (aurora A kinase (AURKA); Log[nM] 1.0): 103%
- Aurora A % Activity Set3 (aurora A kinase (AURKA); Log[nM] 1.0): 99%
- Aurora A % Activity Set1 (aurora A kinase (AURKA); Log[nM] 1.5): 100%
- Aurora A % Activity Set2 (aurora A kinase (AURKA); Log[nM] 1.5): 103%
- Aurora A % Activity Set3 (aurora A kinase (AURKA); Log[nM] 1.5): 103%
- Aurora A % Activity Set1 (aurora A kinase (AURKA); Log[nM] 2.0): 100%
- Aurora A % Activity Set2 (aurora A kinase (AURKA); Log[nM] 2.0): 106%
- Aurora A % Activity Set3 (aurora A kinase (AURKA); Log[nM] 2.0): 105%
- Aurora A % Activity Set1 (aurora A kinase (AURKA); Log[nM] 2.5): 95%
- Aurora A % Activity Set2 (aurora A kinase (AURKA); Log[nM] 2.5): 97%
- Aurora A % Activity Set3 (aurora A kinase (AURKA); Log[nM] 2.5): 95%
- Aurora A % Activity Set1 (aurora A kinase (AURKA); Log[nM] 3.0): 95%
- Aurora A % Activity Set2 (aurora A kinase (AURKA); Log[nM] 3.0): 103%
- Aurora A % Activity Set3 (aurora A kinase (AURKA); Log[nM] 3.0): 93%
- Aurora A % Activity Set1 (aurora A kinase (AURKA); Log[nM] 3.5): 40%
- Aurora A % Activity Set2 (aurora A kinase (AURKA); Log[nM] 3.5): 40%
- Aurora A % Activity Set3 (aurora A kinase (AURKA); Log[nM] 3.5): 37%
- Aurora A % Activity Set1 (aurora A kinase (AURKA); Log[nM] 4.0): 16%
- Aurora A % Activity Set2 (aurora A kinase (AURKA); Log[nM] 4.0): 16%
- Aurora A % Activity Set3 (aurora A kinase (AURKA); Log[nM] 4.0): 15%
- Aurora A % Activity Set1 (aurora A kinase (AURKA); Log[nM] 4.5): 31%
- Aurora A % Activity Set2 (aurora A kinase (AURKA); Log[nM] 4.5): 30%
- Aurora A % Activity Set3 (aurora A kinase (AURKA); Log[nM] 4.5): 30%
- Aurora A % Activity Set1 (aurora A kinase (AURKA); Log[nM] 5.0): 17%
- Aurora A % Activity Set2 (aurora A kinase (AURKA); Log[nM] 5.0): 15%
- Aurora A % Activity Set3 (aurora A kinase (AURKA); Log[nM] 5.0): 16%
SMILES: Clc1ccc(Nc2ncnc3[nH]ccc23)cc1Br [Compound 7, N^4-(3-bromo, 4-chlorophenyl)-7H-pyrrolo[2,3-d]pyrimidine-4-amine]

- EGFR inhibition (in words) (EGFR): micromolar EGFR inhibition
- Fold better for EGFR over AURKA (EGFR): 2 fold
- Fold less potent than staurosporine against EGFR (EGFR): seven-fold
- IC50 (EGFR; [1]): 2.94 ± 0.0944 µM
- IC50 (EGFR; [2]): 3 µM
- EGFR % Activity Set1 (EGFR; Log[nM] 0): 98%
- EGFR % Activity Set2 (EGFR; Log[nM] 0): 102%
- EGFR % Activity Set3 (EGFR; Log[nM] 0): 105%
- EGFR % Activity Set1 (EGFR; Log[nM] 1.0): 102%
- EGFR % Activity Set2 (EGFR; Log[nM] 1.0): 110%
- EGFR % Activity Set3 (EGFR; Log[nM] 1.0): 108%
- EGFR % Activity Set1 (EGFR; Log[nM] 1.5): 105%
- EGFR % Activity Set2 (EGFR; Log[nM] 1.5): 106%
- EGFR % Activity Set3 (EGFR; Log[nM] 1.5): 108%
- EGFR % Activity Set1 (EGFR; Log[nM] 2.0): 99%
- EGFR % Activity Set2 (EGFR; Log[nM] 2.0): 102%
- EGFR % Activity Set3 (EGFR; Log[nM] 2.0): 104%
- EGFR % Activity Set1 (EGFR; Log[nM] 2.5): 96%
- EGFR % Activity Set2 (EGFR; Log[nM] 2.5): 93%
- EGFR % Activity Set3 (EGFR; Log[nM] 2.5): 97%
- EGFR % Activity Set1 (EGFR; Log[nM] 3.0): 72%
- EGFR % Activity Set2 (EGFR; Log[nM] 3.0): 79%
- EGFR % Activity Set3 (EGFR; Log[nM] 3.0): 78%
- EGFR % Activity Set1 (EGFR; Log[nM] 3.5): 43%
- EGFR % Activity Set2 (EGFR; Log[nM] 3.5): 48%
- EGFR % Activity Set3 (EGFR; Log[nM] 3.5): 43%
- EGFR % Activity Set1 (EGFR; Log[nM] 4.0): 23%
- EGFR % Activity Set2 (EGFR; Log[nM] 4.0): 24%
- EGFR % Activity Set3 (EGFR; Log[nM] 4.0): 22%
- EGFR % Activity Set1 (EGFR; Log[nM] 4.5): 8%
- EGFR % Activity Set2 (EGFR; Log[nM] 4.5): 9%
- EGFR % Activity Set3 (EGFR; Log[nM] 4.5): 8%
- EGFR % Activity Set1 (EGFR; Log[nM] 5.0): 4%
- EGFR % Activity Set2 (EGFR; Log[nM] 5.0): 4%
- EGFR % Activity Set3 (EGFR; Log[nM] 5.0): 4%
- IC50 (aurora A kinase (AURKA); [3]): 6.68 ± 0.54 µM
- IC50 (aurora A kinase (AURKA); [4]): 6.7 µM
- Aurora A % Activity Set1 (aurora A kinase (AURKA); Log[nM] 0): 104%
- Aurora A % Activity Set2 (aurora A kinase (AURKA); Log[nM] 0): 94%
- Aurora A % Activity Set3 (aurora A kinase (AURKA); Log[nM] 0): 88%
- Aurora A % Activity Set1 (aurora A kinase (AURKA); Log[nM] 1.0): 95%
- Aurora A % Activity Set2 (aurora A kinase (AURKA); Log[nM] 1.0): 89%
- Aurora A % Activity Set3 (aurora A kinase (AURKA); Log[nM] 1.0): 91%
- Aurora A % Activity Set1 (aurora A kinase (AURKA); Log[nM] 1.5): 111%
- Aurora A % Activity Set2 (aurora A kinase (AURKA); Log[nM] 1.5): 100%
- Aurora A % Activity Set3 (aurora A kinase (AURKA); Log[nM] 1.5): 110%
- Aurora A % Activity Set1 (aurora A kinase (AURKA); Log[nM] 2.0): 100%
- Aurora A % Activity Set2 (aurora A kinase (AURKA); Log[nM] 2.0): 95%
- Aurora A % Activity Set3 (aurora A kinase (AURKA); Log[nM] 2.0): 96%
- Aurora A % Activity Set1 (aurora A kinase (AURKA); Log[nM] 2.5): 108%
- Aurora A % Activity Set2 (aurora A kinase (AURKA); Log[nM] 2.5): 100%
- Aurora A % Activity Set3 (aurora A kinase (AURKA); Log[nM] 2.5): 106%
- Aurora A % Activity Set1 (aurora A kinase (AURKA); Log[nM] 3.0): 88%
- Aurora A % Activity Set2 (aurora A kinase (AURKA); Log[nM] 3.0): 91%
- Aurora A % Activity Set3 (aurora A kinase (AURKA); Log[nM] 3.0): 84%
- Aurora A % Activity Set1 (aurora A kinase (AURKA); Log[nM] 3.5): 86%
- Aurora A % Activity Set2 (aurora A kinase (AURKA); Log[nM] 3.5): 80%
- Aurora A % Activity Set3 (aurora A kinase (AURKA); Log[nM] 3.5): 76%
- Aurora A % Activity Set1 (aurora A kinase (AURKA); Log[nM] 4.0): 30%
- Aurora A % Activity Set2 (aurora A kinase (AURKA); Log[nM] 4.0): 33%
- Aurora A % Activity Set3 (aurora A kinase (AURKA); Log[nM] 4.0): 27%
- Aurora A % Activity Set1 (aurora A kinase (AURKA); Log[nM] 4.5): 14%
- Aurora A % Activity Set2 (aurora A kinase (AURKA); Log[nM] 4.5): 14%
- Aurora A % Activity Set3 (aurora A kinase (AURKA); Log[nM] 4.5): 13%
- Aurora A % Activity Set1 (aurora A kinase (AURKA); Log[nM] 5.0): 8%
- Aurora A % Activity Set2 (aurora A kinase (AURKA); Log[nM] 5.0): 6%
- Aurora A % Activity Set3 (aurora A kinase (AURKA); Log[nM] 5.0): 4%
SMILES: COc1ccc(Nc2ncnc3[nH]ccc23)cc1 [Compound 6, N^4-(4-methoxyphenyl)-7H-pyrrolo[2,3-d]pyrimidine-4-amine]
